From US7790725B2, “Thiazolidine derivatives and medicinal use thereof” (Mitsubishi Tanabe Pharma Corporation, priority 2001, dated 2010)
Structures can show the parent of a compound that is named as a salt.

Columns and labels:
Human plasma DPP-IV = target: T1, Human plasma DPP-IV (Homo sapiens, UniProt P27487); experiment: Plasma DPP-IV inhibitory activity, fluorescence assay with Gly-Pro-MCA (human plasma); assay type: biochemical; conditions: for IC50: human plasma (10-fold dilution), Gly-Pro-MCA substrate, room temperature, 60 min
T1 construct: Human plasma DPP-IV; from tissue; host or cells: human plasma
T1 sequence (P27487 39-766 limits assumed): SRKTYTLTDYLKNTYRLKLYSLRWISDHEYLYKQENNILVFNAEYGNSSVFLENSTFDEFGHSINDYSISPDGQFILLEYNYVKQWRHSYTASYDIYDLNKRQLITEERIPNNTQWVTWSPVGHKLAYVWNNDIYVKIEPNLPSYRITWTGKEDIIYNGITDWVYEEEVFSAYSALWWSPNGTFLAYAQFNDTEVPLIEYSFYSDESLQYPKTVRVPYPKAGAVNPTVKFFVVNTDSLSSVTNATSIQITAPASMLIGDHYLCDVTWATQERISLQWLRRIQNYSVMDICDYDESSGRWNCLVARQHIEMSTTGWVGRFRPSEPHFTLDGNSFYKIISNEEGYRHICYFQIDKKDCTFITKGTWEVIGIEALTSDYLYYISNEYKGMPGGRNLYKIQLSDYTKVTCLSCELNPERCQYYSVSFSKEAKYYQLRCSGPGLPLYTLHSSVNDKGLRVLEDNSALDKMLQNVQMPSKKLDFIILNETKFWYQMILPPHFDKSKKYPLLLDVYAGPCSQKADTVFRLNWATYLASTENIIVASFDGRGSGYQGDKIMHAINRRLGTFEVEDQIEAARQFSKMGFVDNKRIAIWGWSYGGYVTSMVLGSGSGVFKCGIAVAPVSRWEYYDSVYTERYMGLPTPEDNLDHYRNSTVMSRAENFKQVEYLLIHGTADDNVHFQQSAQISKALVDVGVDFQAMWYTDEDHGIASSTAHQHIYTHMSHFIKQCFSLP
Method: (§1) The plasma DPP-IV inhibitory activity of human and rat was measured according to the fluorescence assay method and under the conditions of Table 10. As a DPP-IV specific fluorescent substrate, Gly-Pro-MCA (Peptide Institute, Inc.) was used, and reaction solutions having the following compositions containing various concentrations of the test substance were incubated at room temperature for 60 min and the fluorescence intensity (Excitation 360 nm/Emission 465 nm) measured (SPECTRA FLUOR, Tecan Group, Ltd.) was taken as the DPP-IV activity.
(§2) The inhibitory ratio to a solvent addition group was calculated and IC50 value was determined by logistic analysis.

Rat plasma DPP-IV = target: T2, Rat plasma DPP-IV (Rattus norvegicus, UniProt P14740); experiment: Plasma DPP-IV inhibitory activity, fluorescence assay with Gly-Pro-MCA (rat plasma); assay type: biochemical; conditions: rat plasma (10-fold dilution), Gly-Pro-MCA substrate, room temperature, 60 min
T2 construct: Rat plasma DPP-IV; from tissue; host or cells: rat plasma
T2 sequence (P14740 38-767 limits assumed): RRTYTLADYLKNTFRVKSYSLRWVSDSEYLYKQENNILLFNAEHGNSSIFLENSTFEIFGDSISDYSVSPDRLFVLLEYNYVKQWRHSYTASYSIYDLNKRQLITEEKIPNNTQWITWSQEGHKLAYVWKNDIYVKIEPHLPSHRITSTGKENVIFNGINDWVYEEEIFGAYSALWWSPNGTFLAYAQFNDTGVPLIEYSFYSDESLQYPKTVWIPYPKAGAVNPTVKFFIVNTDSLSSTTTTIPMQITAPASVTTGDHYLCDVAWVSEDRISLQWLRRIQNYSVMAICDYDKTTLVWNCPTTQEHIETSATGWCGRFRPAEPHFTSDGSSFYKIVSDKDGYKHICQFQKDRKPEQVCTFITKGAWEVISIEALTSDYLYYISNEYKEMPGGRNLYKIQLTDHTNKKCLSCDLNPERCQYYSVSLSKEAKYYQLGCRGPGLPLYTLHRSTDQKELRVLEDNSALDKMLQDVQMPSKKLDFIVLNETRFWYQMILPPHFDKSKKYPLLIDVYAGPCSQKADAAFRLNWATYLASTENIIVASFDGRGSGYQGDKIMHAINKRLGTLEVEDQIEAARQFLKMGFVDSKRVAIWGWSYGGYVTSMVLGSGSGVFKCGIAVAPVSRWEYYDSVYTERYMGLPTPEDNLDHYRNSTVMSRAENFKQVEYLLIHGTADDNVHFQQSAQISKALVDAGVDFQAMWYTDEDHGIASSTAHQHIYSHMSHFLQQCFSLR
Method: as §1, §2

| SMILES | IC50 (Human plasma DPP-IV) | IC50 (Rat plasma DPP-IV) | plasma DPP-IV inhibitory activity (assessment in words) (Human plasma DPP-IV; statement in the text on Experimental Example 1, species not distinguished) |
| --- | --- | --- | --- |
| N#Cc1ccc(NCCCC[C@H](N)C(=O)N2CCSC2)cc1C(F)(F)F [Example 13, 3-{(S)-2-amino-6-[4-cyano-3-(trifluoromethyl)phenylamino]hexanoyl}-1,3-thiazolidine] | 66 nM | 40 nM |  |
| CS(=O)(=O)c1ccc(NCCCC[C@H](N)C(=O)N2CCSC2)cc1 [Example 7, 3-[(S)-2-amino-6-(4-methanesulfonylphenylamino)hexanoyl]-1,3-thiazolidine] | 15 nM | 13 nM |  |
| N#Cc1ccc(NCCCC[C@H](N)C(=O)N2CCSC2)c([N+](=O)[O-])c1 [Example 5, 3-[(S)-2-amino-6-(4-cyano-2-nitrophenylamino)hexanoyl]-1,3-thiazolidine] | 28 nM | 19 nM |  |
| NCCCC[C@H](N)C(=O)N1CCSC1.O=C(O)C(F)(F)F.O=C(O)C(F)(F)F [comparison compound 1, 3-L-lysyl-1,3-thiazolidine ditrifluoroacetate, reference compound] | 856 nM | 719 nM | sufficient |
| N[C@@H](CCCCN1CCN(c2cc(C(F)(F)F)nc3ccccc23)CC1)C(=O)N1CCSC1 [Example 28, 3-{(S)-2-amino-6-[4-(2-trifluoromethyl-4-quinolyl)piperazin-1-yl]hexanoyl}-1,3-thiazolidine dihydrochloride] | 35 nM | 49 nM |  |

The next lines start with results.

| IC50 (Human plasma DPP-IV) | IC50 (Rat plasma DPP-IV) | SMILES | plasma DPP-IV inhibitory activity (assessment in words) (Human plasma DPP-IV; statement in the text on Experimental Example 1, species not distinguished) |
| --- | --- | --- | --- |
| 0.25 nM | 0.37 nM | O=C([C@@H]1C[C@H](N2CCN(c3cc(C(F)(F)F)nc4ccc(O)cc34)CC2)CN1)N1CCSC1 [Example 48, 3-{(2S,4S)-4-[4-(2-trifluoromethyl-6-hydroxy-4-quinolyl)-1-piperazinyl]-2-pyrrolidinylcarbonyl}-1,3-thiazolidine dihydrochloride] |  |
| 29 nM | 18 nM | N[C@@H](CCCCNc1ccc([N+](=O)[O-])cn1)C(=O)N1CCSC1 [Example 14, 3-[(S)-2-amino-6-(5-nitropyridin-2-ylamino)hexanoyl]-1,3-thiazolidine] |  |
| 0.91 nM | 1.17 nM | Cc1cc(C)n(C2CCN([C@@H]3CN[C@H](C(=O)N4CCSC4)C3)CC2)n1 [Example 56, 3-{(2S,4S)-4-[4-(3,5-dimethyl-1-pyrazolyl)piperidino]-2-pyrrolidinylcarbonyl}-1,3-thiazolidine trihydrochloride] |  |
| 0.24 nM | 0.3 nM | COc1cc(OC)c2nc(C(F)(F)F)cc(N3CCN([C@@H]4CN[C@H](C(=O)N5CCSC5)C4)CC3)c2c1 [Example 55, 3-{(2S,4S)-4-[4-(2-trifluoromethyl-6,8-dimethoxy-4-quinolyl)-1-piperazinyl]-2-pyrrolidinylcarbonyl}-1,3-thiazolidine dihydrochloride] |  |
| 34 nM | 29 nM | N#Cc1ccc(NCCCC[C@H](N)C(=O)N2CCSC2)nc1 [Example 6, 3-[(S)-2-amino-6-(5-cyanopyridin-2-ylamino)hexanoyl]-1,3-thiazolidine dihydrochloride] |  |
